The results in this text go back to patent US20060084597A2, “USE OF COMPOUNDS HAVING GIP ACTIVITY FOR THE TREATMENT OF DISORDERS ASSOCIATED WITH ABNORMAL LOSS OF CELLS AND/OR FOR THE TREATMENT OF OBESITY” (Eisai Co., Ltd., priority 2002, published 2006).

For assay [1], the system named is adult hippocampal progenitor cells. As to the kind of experiment: CyQUANT cell proliferation assay (DNA content). The class given is cell-based, rat. The note with it: for cells in a well at the end of the experiment: around 6 x 10^3 cells seeded, control well without FGF around 1.5 x 10^5. The method, then:
Proliferation assay. Hippocampal progenitor cells were seeded at 0.2 x 10^4 cells/cm^2 on 24-well plates in culture medium containing human FGF-2 (20ng/ml) and left to grow for 48 h. After a further 48 h of growth without FGF-2, cells were incubated with porcine GIP at different concentrations (Sigma), FGF-2 alone or a combination of both GIP (1 nM) and FGF-2 for 48 h. Cell proliferation assay was performed using the CyQUANT Cell Proliferation Kit (Molecular Probes, Eugene, OR) and a GENios microplate reader (TECAN Austria GmbH, Grödig, Austria) according to the instructions of the manufacturer.

The test system is the same in assay [2]. As to the kind of experiment: methyl-[3H]-thymidine incorporation assay. It counts as cell-based, rat. The note with it: 24 h, n = 12. The method, then: Thymidin-assay. Hippocampal progenitor cells were seeded at 0.5 x 10^4 cells/cm^2 on 48-well plates in culture medium and left to grow for 48 h. The cells were then labeled with methyl-[^3H]-thymidine and incubated with GIP (1 nM) or FGF-2 (20ng/ml) for 24 h. Cells were lysed in 0.4 M NaOH, transferred to scint vials, mixed with 0.4 M HCl and assayed for DNA synthesis by scintillation spectrometry. The mean for each experiment was calculated from four different culture wells and each experiment was performed 12 times.

For assay [3] the test system is unchanged. As to the kind of experiment: Apop-Tag staining for apoptotic or dead cells. The class given is cell-based, rat. The note with it: control 3.31 + 0.67%. As for the experimental part: Apop-Tag. Hippocampal progenitor cells were seeded at 1 x 10^4 cells/cm^2 on glass coverslips and treated the same way as for the proliferation assay and incubated with GIP (1 nM) or FGF-2 (20 ng/ml). Cells were fixed and stained for apoptosis according to the Apop Tag kit user manual (Apop Tag S160 direct, Intergene Company, Purchase, NY, USA). A negative control without TdT-enzyme was included and positive controls with addition of H2O2 (100 µM and 1 mM) and DNase I (1 µg/ml) was included. In the last washing step the cells were incubated with the nuclear dye bisBenzimide (Hoechst 33258, Sigma) for 30 min. Apoptotic or dead cells were identified by green fluorescence in the nuclei and Hoechst nuclear dye was used to discriminate total number of cells. Three coverslips per experiment was stained from four different experiments. Positive cells was quantified by scoring the immunoreactivity of 1000–3000 cells systematically observed in 6 nonoverlapping fields in each coverslip.

Assay [4] has the same test system. Kind of assay: LDH release from dying cells. The class given is cell-based, rat. Conditions: GIP 1 nM or FGF-2 20 ng/ml. The method, then: LDH-activity. Release of lactate dehydrogenase (LDH) from dying cells was measured using a routine photometric method (Dept. of Clinical Chemistry, Sahlgrenska University Hospital, Sweden). Cell culture medium was collected from culture wells seeded for the Apop Tag staining (see above). . The mean for each experiment was calculated from three different culture wells and each experiment was performed 4 times. The coefficient of variation for the assay was 1.7 % and the assay standard curve was linear for enzyme activities between 0.1–20 µkat/ dm^3.
In general terms: LDH leaks from cells whose membrane has failed.

Assay [5] relates to hippocampal progenitor cells in adult rat DG. Kind of assay: Intracerebroventricular GIP infusion, BrdU-positive cell count in granule cell layer of dentate gyrus. Conditions: adult male SD rats, i.c.v. 1.92 nmol/day for 5 days. The class given is in vivo. The method, then:
Intracerebroventricular GIP infusion. Adult male SD rats (260-280 g; B&K Universal, Sweden) were intubated and ventilated with isoflurane in an O2/N2O mix (30:70). An infusion cannula connected to an osmotic pump (Alzet brain infusion kit II and Alzet 2001 osmotic pump, Alza Scientific Products, Palo Alto, CA) was placed in the 3rd cerebral ventricle (0.3 mm posterior from Bregma along the midline, 5 mm below skull surface). Each rat was infused (1 µl/hr) for 5 days with either GIP (1.92 nmol/day; n = 5) or vehicle (0.1 M PBS; n = 6) and sacrificed the last day. All animals received a single daily intraperitoneal injection of Bromodeoxyuridine (BrdU; 50 mg/kg of body weight; Boehringer Mannheim; Scandinavia AB, Bromma, Sweden).
Immunohistochemistry and cellcounting. Brains were sectioned and stained for BrdU using a primary mouse BrdU antibody (1:400, Boeringer Mannheim) and biotinylated horse anti-mouse IgG (1:125) secondary antibodies (Vector Laboratories, Burlingame, CA) as previously described^11. For each animal, the total number of BrdU-positive cells in the granule cell layer, including the subgranular layer, and their corresponding sample volume were determined in 12 immunoperoxidase-stained, 40-µm-thick coronal sections taken 240 µm apart. […] Results are expressed as BrdU-positive cells per sample volume.
Statistics. […] All values are expressed as the means ± SEM.

Assay [6] can be described thus: Effect on weight gain after intraventricular infusion in the brain. The class given is in vivo, rat. Conditions: male Sprague-Dawley rats, 1.92 nmol/day intraventricularly, 5 days. The method, then: Rats (male Sprague-Dawley) were given either GIP (6 rats, 1.92 nmol/day) or phosphate buffered saline (PBS) as control-solution (7 rats), intraventricularly in the brain by osmotic mini-pumps. The rats were given substance during five days, and then sacrificed.
The weight of each rat was recorded and the total weight gain during the five days calculated.

For the substance “FGF-2: human fibroblast growth factor-2, a well-documented proliferative agent of these cells [reference compound]”, in assay [1] (FGF-2 20 ng/ml alone, 48 h, n = 4), the “increase in cell proliferation relative to control” value is 112.3 ± 20%. In addition, the “cells in a well at the end of the experiment” value in assay [1] is given as ~3 x 10^5 cells. Besides, the “increase in thymidin incorporation compared to control” value in assay [2] (FGF-2 20 ng/ml) is 60.1 ± 7.1%. The cell death in assay [3] (FGF-2 20 ng/ml) is 0.96 + 0.21%. Besides, the “extracellular level of released LDH compared with controls” value in assay [4] is given as “no statistical difference”.
For “GIP: 42 amino acid gastric inhibitory polypeptide; porcine GIP (Sigma) used in the cell assays (YAEGTFISDYSIAMDKIRQQDFVNWLLAQKGKKSDWKHNITQ; Gastric inhibitory polypeptide synthetic; UniProt P01281 1-42, looked up)”, in assay [1] (GIP 0.1 pM, 48 h), the proliferative effect entry is reported as “absent”. For the same substance, in assay [1] (GIP 1 nM vs FGF-2 20 ng/ml), the “proliferative effect compared with FGF-2” value is on record as “slightly more than half”. In addition, in assay [1] (GIP 1 nM, 48 h, n = 8), the “increase in cell proliferation relative to control” value is 74.5 ± 14.4%. Moreover, the “rate of cell proliferation, dose-dependent” value in assay [1] (GIP doses from 1 pM to 0.1 µM, 48 h) is “significant increases”. Further, the “cells in a well at the end of the experiment” value in assay [1] was ~2.5 x 10^5 cells. The “increase in thymidin incorporation compared to control” value in assay [2] (GIP 1 nM) was 32.4 ± 3.3%. Further, in assay [3] (GIP 1 nM), the “cell death compared with control” value is given as “not statistically different”. In assay [4], the “extracellular level of released LDH compared with controls” value is listed as “no statistical difference”. Further, the “number of BrdU+ cells in the granule cell layer” value in assay [5] (n = 5, PBS 14986 ± 1831) turned out to be 27969 ± 5795 cells/mm^3. In addition, in assay [5] (p < 0.05), the “increase in BrdU-positive cells versus PBS-treated animals” value came out at 86%. Further, in assay [6], the “weight gain as % of the weight gain seen in the PBS treated rats” value was found to be 63%. For the same substance, in assay [6] (PBS 28.5g), the “total weight gain during the five days” value came to 17.9 g.
